PubChem BioAssay (NCI)
Several values for one entry are separate records, joined by “and”; a condition that tells them apart may be missing. Equal entries are not always repeated.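 In this assay, cells in 96-well plates receive the compound at five concentrations for 48 hours. Endpoints are linearly interpolated between the surrounding concentrations. GI50 = concentration required for 50% inhibition of growth. TGI denotes the concentration required for complete inhibition of growth.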

Experiments:
Assay in all cases: growth of human tumour cells (NCI), 48 h
A498 renal = tested on: A498 renal
HCT-15 colon = tested on: HCT-15 colon
PC-3 prostate = tested on: PC-3 prostate
SK-MEL-2 melanoma = tested on: SK-MEL-2 melanoma
SK-MEL-28 melanoma = tested on: SK-MEL-28 melanoma
SK-MEL-5 melanoma = tested on: SK-MEL-5 melanoma
SN12C renal = tested on: SN12C renal
T-47D breast = tested on: T-47D breast
TK-10 renal = tested on: TK-10 renal
UACC-257 melanoma = tested on: UACC-257 melanoma

SMILES | GI50 (A498 renal) [µM] | TGI (A498 renal) | GI50 (HCT-15 colon) [µM] | TGI (HCT-15 colon) | GI50 (PC-3 prostate) [µM] | TGI (PC-3 prostate) | GI50 (SK-MEL-2 melanoma) [µM] | TGI (SK-MEL-2 melanoma) | GI50 (SK-MEL-28 melanoma) [µM] | TGI (SK-MEL-28 melanoma) | GI50 (SK-MEL-5 melanoma) [µM] | TGI (SK-MEL-5 melanoma) | GI50 (SN12C renal) [µM] | TGI (SN12C renal) | GI50 (T-47D breast) [µM] | TGI (T-47D breast) | GI50 (TK-10 renal) [µM] | TGI (TK-10 renal) | GI50 (UACC-257 melanoma) [µM] | TGI (UACC-257 melanoma)
CCOc1cc(/C=C/C(=O)CC(=O)/C=C/c2ccc(OC(=O)CNc3nc4ccc(OC)cc4s3)c(OCC)c2)ccc1OC(=O)CNc1nc2ccc(OC)cc2s1 | 13.4 | 26.2 µM | 5.24 | 22.6 µM | 5.08 | 67.3 µM | 4.94 | 29.1 µM | 3.54 | 12.2 µM | 5.25 | 17.2 µM | 11.6 | 65.5 µM | 10.6 | 43.1 µM | 11.4 | 27.5 µM | 5.53 | 21.1 µM
CN(C)CCN1C(=O)c2cccc3cc(N)cc(c23)C1=O |  | 13.8 µM and 8.93 µM |  | > 50 µM and 16 µM | 4.07 | 42.8 µM and 8.73 µM | 3.73 | 13 µM and 9.4 µM |  | 27.8 µM and 19.6 µM | 1.88 | 4.44 µM and 6.46 µM | 2.83 | > 56.9 µM and 16.3 µM | 3.66 | > 57.1 µM and 32.4 µM | 3.27 | 24.9 µM and 14.4 µM | 2.55 | 9.51 µM and 12.8 µM
O=C(Nc1ccc(Nc2ccc3c(c2)C(=O)c2ccccc2C3=O)c2c1C(=O)c1ccccc1C2=O)c1ccccc1 |  | > 100 µM |  | > 100 µM |  | > 100 µM |  | > 30.5 µM |  | > 100 µM |  | > 100 µM |  | > 100 µM |  | > 100 µM |  | > 100 µM |  | > 100 µM
CC(C)(Sc1cc(C(C)(C)C)c(O)c(C(C)(C)C)c1)Sc1cc(C(C)(C)C)c(O)c(C(C)(C)C)c1 |  | > 100 µM |  | > 100 µM |  | > 100 µM |  | > 100 µM |  | > 100 µM |  | > 100 µM |  | > 100 µM |  | > 100 µM |  | > 100 µM |  | > 100 µM
O=c1oc2ccccc2cc1P(=O)(O)O |  | > 100 µM |  | > 100 µM |  | > 100 µM |  | > 100 µM |  | > 100 µM |  | > 100 µM |  | > 100 µM |  | > 100 µM |  | > 100 µM |  | > 100 µM
C=C(C)[C@@H]1CC[C@]2(C(=O)OC)CC[C@]3(C)[C@H](CC[C@@H]4[C@@](C)(CCc5nn[nH]n5)[C@H](C(=C)C)CC[C@]43C)[C@@H]12 | 22.4 | 60.7 µM | 13.2 | 35.7 µM | 3.46 | 17.2 µM | 16.7 | 39.5 µM | 12.9 | 27.8 µM | 11.4 | 24.4 µM | 14.7 | 32.8 µM | 15.2 | 84.3 µM | 30.9 | > 100 µM | 23.9 | 79.9 µM
OC(c1ccccc1)c1c(-c2ccccc2)[nH]c(-c2ccccc2)c1C(O)c1ccccc1 (configuration not stated) |  | 8.73 µM |  | 40.1 µM |  | 21.1 µM |  | 5.18 µM |  | 12.1 µM |  | 5.27 µM |  | 5.68 µM |  | 40.4 µM |  | 18.9 µM |  | 8.61 µM
CCn1c(-c2nonc2N)nc2cnc(Oc3cccc(NC(=O)c4ccc(OCCN5CCOCC5)cc4)c3)cc21 | 1.05 | > 23.7 µM | 2.16 | > 25 µM | 2.88 | > 25 µM | 7.54 | > 25 µM | > 20.1 | > 25 µM | 3.18 | > 22 µM | 6.26 | > 25 µM | 1.94 | > 25 µM | 0.564 | 13.7 µM | 7.09 | > 25 µM
CN1CCC2(CC1)C(=O)Nc1cc(NC(=O)c3ccc4c(c3)C[C@@H]3C(C)(C)[C@H](O)[C@H](F)C[C@@]3(C)O4)ccc12 | 0.135 | 1.09 µM | 11 | 45.8 µM | 0.117 | > 100 µM | 11.3 | 32.3 µM | 1.53 | 14.5 µM | 2.62 | 12.3 µM | 13.2 | > 100 µM | 5.67 | 28.8 µM | 21.4 | 76.3 µM | 3.21 | 21.2 µM
C[C@]12CC[C@H]3[C@@H](CCC4=CC(=O)CC[C@@]43C)[C@]1(O)CC[C@]2(O)C(=O)CO |  | > 100 µM |  | > 100 µM |  | > 100 µM |  | > 100 µM |  | > 100 µM |  | > 100 µM |  | > 100 µM |  | > 100 µM |  | > 100 µM |  | > 100 µM
COc1cc2c(cc1OCCCCCOc1ccc(-c3nc4ccccc4s3)cc1)N=C[C@@H]1CCCN1C2=O | 5.29 | 11.5 µM | 2.46 | 22.2 µM | 1.14 | 7.04 µM | 4.86 | 16.2 µM | 8.74 | 31.7 µM | 0.934 | 3.88 µM | 2.95 | 18.9 µM | 0.799 | 4.11 µM | 8.48 | > 57.7 µM | 6.61 | 21.2 µM
N#Cc1nc2cc(Cl)c(Cl)cc2nc1-c1ccc(Cl)cc1 | 21.5 | 60.7 µM | > 71.9 | > 100 µM | 34.8 | > 67.7 µM | > 56 | > 100 µM | > 92 | > 100 µM | 44.3 | > 100 µM | 28.5 | > 78.6 µM | > 66.1 | > 100 µM | 21.3 | 46.3 µM | 97.4 | > 100 µM
O=C(c1ccccc1)c1nc2ccc(Cl)cc2cc1C(Br)Br |  | 9.45 µM |  | 0.879 µM |  | 0.744 µM |  | 1.88 µM |  | 0.814 µM |  | 2.01 µM |  | 0.836 µM |  | 1.12 µM |  | 1.83 µM |  | 1.54 µM
COc1cc(OC)c(OC)cc1/C=C/c1ccccn1 |  | > 10 µM |  | > 10 µM |  | > 10 µM |  | > 10 µM |  | > 10 µM |  | > 10 µM |  | > 10 µM |  | > 10 µM |  | > 10 µM |  | > 10 µM
COc1cccc2c1C(=O)c1c(O)c3c(c(O)c1C2=O)C[C@@](O)(/C(C)=N/NC(=O)c1cccc([N+](=O)[O-])c1)C[C@@H]3OC1CC(N)C(O)C(C)O1 (some centres not stated) | 0.564 | 2.23 µM | 1.57 | 14.2 µM | 0.616 | 8.74 µM | 0.996 | 3.23 µM | 0.608 | 2.45 µM | 0.113 | 0.361 µM | 0.233 | 16.9 µM | 0.176 | 1.26 µM | 0.896 | 10.2 µM | 0.757 | 3.43 µM
